In publication PMC12128972, “TYRA-300, an FGFR3-selective inhibitor, promotes bone growth in two FGFR3-driven models of chondrodysplasia” (JCI Insight, 2025):
Values joined by “and” are separate entries in the source; they are usually repeats but may differ in a detail not shown here. Equal entries are not always repeated.

What was measured:
[1] = Pharmacokinetic study, single subcutaneous dose, plasma by LC-MS/MS; type: in vivo, mouse; details: for plasma concentration, individual mice: 1.2 mg/kg s.c.
Method: The pharmacokinetic profile of TYRA-300 in adult rats has been previously described ([31]). Because the FGFR3-driven skeletal dysplasia models are performed using neonatal mice, an experiment was designed to understand the pharmacokinetics of TYRA-300 at a relevant efficacious dose in male and female mice, ranging from 1 to 12 weeks of age. In this experiment, TYRA-300 plasma levels were measured following administration of a single 1.2 mg/kg subcutaneous dose. […] There was a similar AUCinf in 2-week-old mice (2,295 h × ng/mL). […] Cytochrome P450 enzymes are commonly responsible for the metabolism of TKIs. In mice, cytochrome P450s are not fully developed until the mice are at least 3 weeks of age ([33]), which may explain the higher level of TYRA-300 exposure in the younger mice.
C57BL/6J (The Jackson Laboratory) mice were randomized to treatment groups according to body weight. Owing to the young age of some groups, a mixture of female and male mice was used. Depending on the age of mice, 3–8 mice per group were dosed with a single subcutaneous dose of TYRA-300 (1.2 mg/kg) and then blood was collected either serially at 3 different time points (if 4 weeks of age and older) or terminally at a single time point (if 1–3 weeks of age). Mouse plasma was harvested using lithium heparin tubes at 0.5, 1, 4, 6, 8, 12, and 24 hours after dosing. Compound concentration from plasma was detected using liquid chromatography with tandem mass spectrometry at Oakland Analytics.

pERK1/2 = experiment: Fgfr3N534K/+ mice: histology and pERK1/2 immunohistochemistry of distal femur; type: in vivo, mouse; details: 1.8 mg/kg daily for 21 days
Method: To confirm the mechanistic effect of TYRA-300 within the growth plate of treated Fgfr3^N534K/+ mice, immunohistochemical analyses were performed on the distal femurs. In contrast to the ACH model, a larger SOC is visible in the femoral epiphysis of HCH mice ([42]), and the effect of TYRA-300 on SOC formation is not obvious. […] It is well established that the MAPK pathway is the canonical FGFR3 downstream signaling pathway. Here, we confirmed that this pathway is still activated at 24 days of age in the HCH growth plate through immunohistochemical staining of phosphorylated ERK1/2 (pERK), which was positive in hypertrophic chondrocytes (Figure 4G).
The right femur and lumbar vertebrae segment L4–L6 were collected and fixed in 4% paraformaldehyde, decalcified with ethylenediaminetetraacetic acid (EDTA) 0.5 M (pH 8) for 2 or 3 weeks, and embedded in paraffin. Serial paraffin sections of 5 μm were stained with hematoxylin, eosin, and Safranin O. For immunohistochemistry, sections were labeled with antibodies against collagen type X (BIOCYC ref. [1]-CO097-05-RUO, 1:100 dilution), collagen type I (Novotec, 20151, dilution 1:1,000), pERK (Cell Signaling, 4370S, dilution 1:1,000), and PCNA (Abcam, GR3195972-6, 1:500 dilution) using the Dako Envision Kit. […] Cells were counted using ImageJ software (NIH, Laboratory for Optical Computational Instrumentation).

[2] = tested on: lumbar vertebrae of Fgfr3^N534K/+ mice; experiment: Fgfr3N534K/+ mice: histology of lumbar vertebrae and intervertebral disc; type: in vivo, mouse; details: 1.8 mg/kg daily for 21 days
Source text: We also analyzed the lumbar vertebrae and intervertebral disc (Figure 5E).
The right femur and lumbar vertebrae segment L4–L6 were collected and fixed in 4% paraformaldehyde, decalcified with ethylenediaminetetraacetic acid (EDTA) 0.5 M (pH 8) for 2 or 3 weeks, and embedded in paraffin. Serial paraffin sections of 5 μm were stained with hematoxylin, eosin, and Safranin O. For immunohistochemistry, sections were labeled with antibodies against collagen type X (BIOCYC ref. [1]-CO097-05-RUO, 1:100 dilution), collagen type I (Novotec, 20151, dilution 1:1,000), pERK (Cell Signaling, 4370S, dilution 1:1,000), and PCNA (Abcam, GR3195972-6, 1:500 dilution) using the Dako Envision Kit. Images were captured with an Olympus PD70-IX2-UCB microscope and CellSens software (Olympus Life Science Solutions). Cells were counted using ImageJ software (NIH, Laboratory for Optical Computational Instrumentation).

FGFR3 N540K = tested on: FGFR3 N540K; set-up: method as in PMID 39258897; details: cited from earlier work
[3] = 1.2 mg/kg single s.c., 1-week-old mice

Structure (SMILES): C[C@@H](Oc1ccc2[nH]nc(-c3ccc(N4CC5(C4)CN(S(C)(=O)=O)C5)nc3)c2c1)c1c(Cl)cncc1Cl [TYRA-300]
- plasma concentration, individual mice ([1]; 1 week old, 12 h, LLOQ 4 ng/mL): 37.7 ng/mL and 35.7 ng/mL and 49.1 ng/mL
- plasma concentration, individual mice ([1]; 1 week old, 24 h, LLOQ 4 ng/mL): 4 ng/mL (2×) and 5.11 ng/mL
- plasma concentration, individual mice ([1]; 1 week old, time 0 h, LLOQ 4 ng/mL): 4 ng/mL
- plasma concentration, individual mice ([1]; 2 weeks old, 0.5 h, LLOQ 8 ng/mL): 276 ng/mL and 247 ng/mL and 312 ng/mL
- plasma concentration, individual mice ([1]; 2 weeks old, 1 h, LLOQ 8 ng/mL): 442 ng/mL and 320 ng/mL and 190 ng/mL
- plasma concentration, individual mice ([1]; 2 weeks old, 4 h, LLOQ 8 ng/mL): 196 ng/mL and 308 ng/mL and 157 ng/mL
- plasma concentration, individual mice ([1]; 2 weeks old, 6 h, LLOQ 8 ng/mL): 148 ng/mL and 144 ng/mL and 232 ng/mL
- plasma concentration, individual mice ([1]; 2 weeks old, 8 h, LLOQ 8 ng/mL): 50.3 ng/mL and 95.4 ng/mL and 202 ng/mL
- plasma concentration, individual mice ([1]; 2 weeks old, 12 h, LLOQ 8 ng/mL): 42.2 ng/mL and 29.1 ng/mL and 34.4 ng/mL
- plasma concentration, individual mice ([1]; 2 weeks old, 24 h, LLOQ 8 ng/mL): 8 ng/mL and 10.2 ng/mL and 8.27 ng/mL
- plasma concentration, individual mice ([1]; 2 weeks old, time 0 h, LLOQ 8 ng/mL): 8 ng/mL
- plasma concentration, individual mice ([1]; 3 weeks old, 0.5 h, LLOQ 8 ng/mL): 250 ng/mL and 248 ng/mL and 229 ng/mL and 221 ng/mL
- plasma concentration, individual mice ([1]; 3 weeks old, 1 h, LLOQ 8 ng/mL): 293 ng/mL and 238 ng/mL and 250 ng/mL and 251 ng/mL
- plasma concentration, individual mice ([1]; 3 weeks old, 4 h, LLOQ 8 ng/mL): 10.2 ng/mL and 12.5 ng/mL and 17.9 ng/mL and 9.9 ng/mL
- plasma concentration, individual mice ([1]; 3 weeks old, 6 h, LLOQ 8 ng/mL): 8 ng/mL (3×) and 15 ng/mL
- plasma concentration, individual mice ([1]; 3 weeks old, 8 h, LLOQ 8 ng/mL): 8 ng/mL
- plasma concentration, individual mice ([1]; 3 weeks old, 12 h, LLOQ 8 ng/mL): 8 ng/mL (3×) and 9.31 ng/mL
- plasma concentration, individual mice ([1]; 3 weeks old, 24 h, LLOQ 8 ng/mL): 8 ng/mL
- plasma concentration, individual mice ([1]; 3 weeks old, time 0 h, LLOQ 8 ng/mL): 8 ng/mL
- plasma concentration, individual mice ([1]; 4 weeks old, 0.5 h, LLOQ 8 ng/mL): 102 ng/mL and 115 ng/mL and 172 ng/mL and 145 ng/mL and 197 ng/mL
- plasma concentration, individual mice ([1]; 4 weeks old, 1 h, LLOQ 8 ng/mL): 169 ng/mL and 242 ng/mL and 178 ng/mL and 48 ng/mL
- plasma concentration, individual mice ([1]; 4 weeks old, 4 h, LLOQ 8 ng/mL): 39 ng/mL and 12 ng/mL (2×) and 10 ng/mL
- plasma concentration, individual mice ([1]; 4 weeks old, 6 h, LLOQ 8 ng/mL): 8 ng/mL (3×) and 16 ng/mL
- plasma concentration, individual mice ([1]; 4 weeks old, 8 h, LLOQ 8 ng/mL): 8 ng/mL
- plasma concentration, individual mice ([1]; 4 weeks old, 12 h, LLOQ 8 ng/mL): 8 ng/mL
- plasma concentration, individual mice ([1]; 4 weeks old, 24 h, LLOQ 8 ng/mL): 8 ng/mL
- plasma concentration, individual mice ([1]; 4 weeks old, time 0 h, LLOQ 8 ng/mL): 8 ng/mL
- plasma concentration, individual mice ([1]; 6 weeks old, 0.5 h, LLOQ 8 ng/mL): 150 ng/mL and 198 ng/mL and 171 ng/mL and 172 ng/mL
- plasma concentration, individual mice ([1]; 6 weeks old, time 0 h, LLOQ 8 ng/mL): 8 ng/mL
- AUCinf of 3- through 12-week-old mice, times lower than average of 1- and 2-week-old mice ([1]; 1.2 mg/kg single s.c.): about 3.8 times
- maximum observed concentration [1, 3]: 287 ng/mL
- mean AUCinf [1, 3]: 1,789 h*ng/mL
- mean AUCinf ([1]; 1.2 mg/kg single s.c., 2-week-old mice): 2,295 h*ng/mL
- average AUCinf ([1]; 1.2 mg/kg single s.c., 3- through 12-week-old mice): 538 ng·h/mL
- overall architecture of the growth plate (H&E and collagen type X) (pERK1/2): did not demonstrate significant changes
- pERK+ cells per ROI vs vehicle (pERK1/2; distal femur growth plate): significant decrease
- shape of the intervertebral disc [2]: slightly modified the shape of the intervertebral disc
- inhibition of FGFR3 N540K relative to wild-type and G380R mutant proteins (FGFR3 N540K): lower inhibition
